We go through 34 compounds from patent publication US6967196B1, “Sulfonamide compounds and uses thereof” (Bristol-Myers Squibb Company, priority 1999, dated 2005).

Counter-ions that a name gives are not always drawn.

One may read the IC50 as the point on the concentration scale where inhibition reaches its midpoint.

The first assay relates to amyloid β production in transfected H4 (human neuroglioma) cells stably expressing APP constructs. As to the kind of experiment: In vitro cell-based assay of inhibitors of amyloid β production (ELISA). The settings on record: Homo sapiens, 16 h, transfected H4 cells stably expressing APP; approximately 16 hours incubation; amyloid β in medium by ELISA; read-out: ACTIVITY (IC50, inhibition of amyloid β production). In a few lines: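 Aβ secreted into the medium was determined by a two-antibody ELISA specific for the Aβ C-terminus, calibrated with known Aβ amounts. Before that, compounds (10-100 μM initially) were left on the cells for roughly 16 hours.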
On the technique in general: ELISA stands for enzyme-linked immunosorbent assay.
For `C#Cc1ccccc1CN(c1ccccc1)S(=O)(=O)c1ccc(Cl)cc1` [Example 991, 4-chloro-N-(2-ethynylbenzyl)-N-phenylbenzenesulfonamide], the IC50 was more than 500 nM.
Take `O=S(=O)(Cc1ccccc1)N(Cc1ccccc1OCCCN1CCCCC1)c1cc(Cl)ccc1Cl` [Example 992, N-(2,5-dichlorophenyl)(phenyl)-N-{2-[3-(1-piperidinyl)propoxy]benzyl}methanesulfonamide hydrochloride]: the IC50 is more than 500 nM.
Same read-out and setting: for `O=S(=O)(c1ccc(Cl)cc1)N(Cc1ccccc1OCCCNC1CCCCC1)c1ccccc1` [Example 996, 4-chloro-N-{2-[3-(cyclohexylamino)propoxy]benzyl}-N-phenylbenzenesulfonamide hydrochloride] the value was more than 500 nM; for `O=[N+]([O-])c1ccc(SCCCOc2ccccc2CN(c2cc(F)ccc2F)S(=O)(=O)c2ccc(Cl)cc2)cc1` [Example 997, 4-chloro-N-(2,5-difluorophenyl)-N-(2-{3-[(4-nitrophenyl)sulfanyl]propoxy}benzyl)benzenesulfonamide], more than 500 nM; for `O=[N+]([O-])c1ccc(CN(Cc2ccccc2OCCCN2CCCCC2)S(=O)(=O)c2ccc(Cl)cc2)cc1` [Example 998, 4-chloro-N-(4-nitrobenzyl)-N-{2-[3-(1-piperidinyl)propoxy]benzyl}benzenesulfonamide hydrochloride], more than 500 nM.
Turning to `O=S(=O)(c1ccc(Cl)cc1)N(Cc1ccccc1OCCCN1CCc2ccccc2C1)c1ccccc1` [Example 999, 4-chloro-N-{2-[3-(3,4-dihydro-2(1H)-isoquinolinyl)propoxy]benzyl}-N-phenylbenzenesulfonamide], the IC50 was more than 500 nM.
The same measure, in the same setting: with `C=CCOc1ccccc1CN(c1ccccc1)S(=O)(=O)c1ccc(Cl)cc1` [Example 1001, N-[2-(allyloxy)benzyl]-4-chloro-N-phenylbenzenesulfonamide] the figure was more than 500 nM; with `O=S(=O)(c1ccc(Cl)cc1)N(Cc1ccccc1OCCCN1CCCCC1)C1CC1` [Example 1003, 4-chloro-N-cyclopropyl-N-{2-[3-(1-piperidinyl)propoxy]benzyl}benzenesulfonamide hydrochloride], more than 500 nM.
In the case of `O=S(=O)(c1ccccc1)N(Cc1ccccc1CCCCN1CCCCC1)c1ccccc1` [Example 1005, N-phenyl-N-{2-[4-(1-piperidinyl)butyl]benzyl}benzenesulfonamide], the IC50 is more than 500 nM.
Turning to `C[C@H](c1ccc(F)cc1CCCC1=NCCCN1)N(c1cc(F)ccc1F)S(=O)(=O)c1ccc(Cl)cc1` [Example 1008, 4-chloro-N-(2,5-difluorophenyl)-N-((1R)-1-{4-fluoro-2-[3-(1,4,5,6-tetrahydro-2-pyrimidinyl)propyl]phenyl}ethyl)benzenesulfonamide hydrochloride], the IC50 is more than 500 nM.
The same measure, in the same setting: for `O=S(=O)(c1ccc(Cl)cc1)N(Cc1cc(Cl)ccc1OCCCN1CCC(O)CC1)c1ccccc1` [Example 1011, 4-chloro-N-{5-chloro-2-[3-(4-hydroxy-1-piperidinyl)propoxy]benzyl}-N-phenylbenzenesulfonamide hydrochloride] the value was more than 500 nM; for `O=S(=O)(c1ccc(Cl)cc1)N(Cc1ccccc1OCCCN1CCCCC1)C1CCc2ccccc21` (stereo not shown) [Example 1012, 4-chloro-N-(2,3-dihydro-1H-inden-1-yl)-N-{2-[3-(1-piperidinyl)propoxy]benzyl}benzenesulfonamide hydrochloride], more than 500 nM.
With `O=S(=O)(c1ccc(Cl)cc1)N(CCc1ccccc1O)c1ccccc1` [Example 1015, 4-chloro-N-[2-(2-hydroxyphenyl)ethyl]-N-phenylbenzenesulfonamide], the IC50 is more than 500 nM.
Still for that read-out and setting: for `O=S(=O)(c1ccc(Cl)cc1)N(Cc1ccccc1CCCCO)c1ccccc1` [Example 1016, 4-chloro-N-[2-(4-hydroxybutyl)benzyl]-N-phenylbenzenesulfonamide] the value was more than 500 nM; for `O=S(=O)(c1ccc(Cl)cc1)N(Cc1ccccc1OCCCS)c1ccccc1` [Example 1018, 4-chloro-N-phenyl-N-[2-(3-sulfanylpropoxy)benzyl]benzenesulfonamide], more than 500 nM; for `CSc1ccc(N(Cc2ccccc2OCCCN2CCCCC2)S(=O)(=O)c2ccc(Cl)cc2)cc1` [Example 1019, 4-chloro-N-[4-(methylsulfanyl)phenyl]-N-{2-[3-(1-piperidinyl)propoxy]benzyl}benzenesulfonamide hydrochloride], more than 500 nM.
With `O=S(=O)(c1ccc(Cl)cc1)N(Cc1ccccc1OCCCN1CCCCC1)C1Cc2ccccc2C1` [Example 1020, 4-chloro-N-(2,3-dihydro-1H-inden-2-yl)-N-{2-[3-(1-piperidinyl)propoxy]benzyl}benzenesulfonamide hydrochloride], the IC50 is more than 500 nM.
Regarding `CC(C)(C)OC(=O)n1c(-c2ccccc2OCCCN2CCCCC2)cc2ccccc21` [Example 1021, tert-butyl 2-{2-[3-(1-piperidinyl)propoxy]phenyl}-1H-indole-1-carboxylate trifluoroacetate], the IC50 is more than 500 nM.
With `O=S1(=O)c2cccc3cccc(c23)N1Cc1ccccc1OCCCN1CCCCC1` [Example 1024, 2-{2-[3-(1-piperidinyl)propoxy]benzyl}-2H-naphtho[1,8-cd]isothiazol 1,1-dioxide hydrochloride], the IC50 is more than 500 nM.
As to `O=S(=O)(c1ccc(Cl)cc1)N(Cc1ccccc1OCCCCCCl)c1ccccc1` [Example 1026, 4-chloro-N-{2-[(5-chloropentyl)oxy]benzyl}-N-phenylbenzenesulfonamide], the 50% inhibitory concentration (IC50) was more than 500 nM.
Consider `CS(=O)(=O)c1ccccc1N(Cc1ccccc1OCCCN1CCCCC1)S(=O)(=O)c1ccc(Cl)cc1` [Example 1027, 4-chloro-N-[2-(methylsulfonyl)phenyl]-N-{2-[3-(1-piperidinyl)propoxy]benzyl}benzenesulfonamide hydrochloride], for which the IC50 was more than 500 nM.
The same measure, in the same setting: for `COc1ccc(SCCCOc2ccccc2CN(c2cc(F)ccc2F)S(=O)(=O)c2ccc(Cl)cc2)cc1` [Example 1029, 4-chloro-N-(2,5-difluorophenyl)-N-(2-{3-[(4-methoxyphenyl)sulfanyl]propoxy}benzyl)benzenesulfonamide] the value was more than 500 nM; for `O=S(=O)(c1ccccc1)N(Cc1ccccc1CCCN1CCCCC1)c1ccccc1` [Example 1031, N-phenyl-N-{2-[3-(1-piperidinyl)propyl]benzyl}benzenesulfonamide], more than 500 nM.
`O=C(c1ccc(OC(F)(F)F)cc1)N1CCCCC1CCOc1ccccc1CN(c1cc(F)ccc1F)S(=O)(=O)c1ccc(Cl)cc1` (stereo not shown) [Example 1033, 4-chloro-N-(2,5-difluorophenyl)-N-[2-(2-{1-[4-(trifluoromethoxy)benzoyl]-2-piperidinyl}ethoxy)benzyl]benzenesulfonamide]: the half-maximal inhibitory concentration (IC50) was more than 500 nM.
Regarding `CS(=O)(=O)c1cccc(N(Cc2ccccc2OCCCN2CCCCC2)S(=O)(=O)c2ccc(Cl)cc2)c1` [Example 1036, 4-chloro-N-[3-(methylsulfonyl)phenyl]-N-{2-[3-(1-piperidinyl)propoxy]benzyl}benzenesulfonamide hydrochloride], the IC50 is more than 500 nM.
`O=S(=O)(c1ccc(Cl)cc1)N(Cc1ccccc1OCCCBr)c1ccccc1` [Example 1039, N-[2-(3-bromopropoxy)benzyl]-4-chloro-N-phenylbenzenesulfonamide]: the IC50 was more than 500 nM.
Turning to `O=S(=O)(c1ccc(Cl)cc1)N(Cc1ccccc1C#CCCO)c1ccccc1` [Example 1040, 4-chloro-N-[2-(4-hydroxy-1-butynyl)benzyl}-N-phenylbenzenesulfonamide], the concentration for half-maximal inhibition (IC50) is more than 500 nM.
Consider `O=C(CCc1ccccc1CN(c1ccccc1)S(=O)(=O)c1ccccc1)N1CCCCC1` [Example 1041, N-{2-[3-oxo-3-(1-piperidinyl)propyl]benzyl}-N-phenylbenzenesulfonamide], for which the IC50 is more than 500 nM.

Still in this assay, the particulars now being: transfected H4 cells stably expressing APP; approximately 16 hours incubation; amyloid β in medium by ELISA; read-out: ACTIVITY (IC50, inhibition of amyloid β production).
`O=C(OC[C@H](c1ccccc1)N(c1cc(F)ccc1F)S(=O)(=O)c1ccc(Cl)cc1)c1cccnc1` [Example 1006, (2S)-2-({[(4-chlorophenyl)sulfonyl]-2,5-difluoroanilino}-2-phenylethyl nicotinate]: the IC50 is more than 500 nM.
As for `CC(=O)Nc1nc(C)c(S(=O)(=O)N(Cc2ccccc2OCCCN2CCCCC2)c2cc(Cl)ccc2Cl)s1` [Example 1022, N-{5-[(2,5-dichloro{2-[3-(1-piperidinyl)propoxy]benzyl}anilino)sulfonyl]-4-methyl-1,3-thiazol-2-yl}acetamide hydrochloride], the IC50 is more than 500 nM.
On to `O=S(=O)(c1ccc(Cl)cc1)N(Cc1c(OCCCN2CCCCC2)ccc2ccccc12)c1cc(F)ccc1F` [Example 1025, 4-chloro-N-(2,5-difluorophenyl)-N-(2-{2-[3-(1-piperidinyl)propoxy]-1-naphthyl}methyl)benzenesulfonamide hydrochloride], for which the IC50 was more than 500 nM.
Take `O=S(=O)(c1ccc(Cl)cc1)N(Cc1ccccc1OCc1ccncc1)c1ccccc1` [Example 1030, 4-chloro-N-phenyl-N-[2-(4-pyrdinylmethoxy)benzyl]benzenesulfonamide hydrochloride]: the concentration for half-maximal inhibition (IC50) was more than 500 nM.
With `O=S(=O)(c1ccc(F)cc1)n1c(-c2ccccc2OCCCN2CCCCC2)cc2ccccc21` [Example 1032, 2-{1-[(4-flurophenyl}sulfonyl]-1H-indol-2-yl}phenyl 3-(1-piperidinyl)propyl ether trifluoroacetate], the IC50 was more than 500 nM.
Turning to `C[N+]1(CCCOc2ccccc2CN(c2cc(Cl)ccc2Cl)S(=O)(=O)c2ccc(Cl)cc2)CCCCC1` [Example 1038, 1-{3-[2-((2,5-dichloro[(4-chlorophenyl)sulfonyl]anilino}methyl)phenoxy]propyl}-1-methylpiperidinium iodide], the IC50 is more than 500 nM.
